Consider 12 compounds from US11524938B2, “Aromatic sulfonamide derivatives” (Bayer Pharma Aktiengesellschaft, priority 2016, dated 2022).

Where only a bound is given, the exact number is not on record here.

For the test, the target named is T1, human P2X4 (Homo sapiens, UniProt Q99571).
T1 sequence (Q99571 1-388): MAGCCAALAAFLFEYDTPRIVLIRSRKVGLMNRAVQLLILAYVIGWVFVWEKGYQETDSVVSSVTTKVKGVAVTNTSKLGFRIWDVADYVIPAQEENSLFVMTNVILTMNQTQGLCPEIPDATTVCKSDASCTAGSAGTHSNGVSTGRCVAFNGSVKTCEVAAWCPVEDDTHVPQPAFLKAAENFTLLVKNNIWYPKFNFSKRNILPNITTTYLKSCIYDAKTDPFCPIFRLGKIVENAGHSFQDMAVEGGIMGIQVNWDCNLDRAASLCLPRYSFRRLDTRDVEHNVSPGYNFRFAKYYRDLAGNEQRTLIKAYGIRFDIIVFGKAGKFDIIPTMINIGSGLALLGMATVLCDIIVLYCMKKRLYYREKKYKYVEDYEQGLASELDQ
The experiment in a line: Human P2X4 HEK Cell FLIPR Assay. The format is cell-based. Conditions: agonist Bz-ATP at EC80; for Emax: HEK293, HEK293 cells, percentage of maximal inhibition, read-out: Human P2X4 HEK Cells (FLIPR Assay) avg Efficacy [%]; for IC50: HEK293 cells, individual values listed where some fall outside detection range. Summed up: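 HEK293 cells stably expressing human P2X4, Fluo8-AM loaded 30 min at 37° C, then compound 30 min at room temperature (0.5% DMSO, pH 7.4 buffer with 1.8 mM CaCl2). Bz-ATP at its daily-determined EC80 added; calcium fluorescence read over 120 sec; IC50 from peak RFU normalized to agonist control, triplicates.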

Usually IC50 stands for the point on the concentration scale where inhibition reaches its midpoint. With `NS(=O)(=O)c1cc(NC(=O)Cc2c(Cl)cccc2C(F)(F)F)ccc1-n1cc(Cl)cn1` [Example 103, N-[4-(4-Chloro-1H-pyrazol-1-yl)-3-sulfamoylphenyl]-2-[2-chloro-6-(trifluoromethyl)-phenyl]acetamide], the Emax was determined as 103% and the concentration for half-maximal inhibition (IC50) was 174 nM.

`Cc1cc(F)c(Br)cc1CC(=O)Nc1ccc(-n2cc(Cl)cn2)c(S(N)(=O)=O)c1` [Example 104, 2-(5-Bromo-4-fluoro-2-methylphenyl)-N-[4-(4-chloro-1H-pyrazol-1-yl)-3-sulfamoyl-phenyl]acetamide]: the Emax was 95% and the IC50 is 2230 nM.

Take `COc1cccc(Cl)c1CC(=O)Nc1ccc(-n2cc(Cl)cn2)c(S(N)(=O)=O)c1` [Example 105, 2-(2-Chloro-6-methoxyphenyl)-N-[4-(4-chloro-1H-pyrazol-1-yl)-3-sulfamoyl-phenyl]acetamide]: the Emax came to 101% and the IC50 was 108 nM.

`CC(C(=O)Nc1ccc(-n2cc(Cl)cn2)c(S(N)(=O)=O)c1)c1c(F)cccc1F` (stereo not drawn) [Example 106, N-[4-(4-Chloro-1H-pyrazol-1-yl)-3-sulfamoylphenyl]-2-(2,6-difluorophenyl)-propanamide]: the Emax turned out to be 92% and the IC50 was 4630 nM.

For `NS(=O)(=O)c1cc(NC(=O)Cc2ccc(C(F)F)cc2)ccc1-n1cc(Cl)cn1` [Example 107, N-[4-(4-Chloro-1H-pyrazol-1-yl)-3-sulfamoylphenyl]-2-[4-(difluoromethyl)-phenyl]acetamide], the Emax stood at 44% and the IC50 was greater than 25000 nM.

For `NS(=O)(=O)c1cc(NC(=O)Cc2ccc(Cl)cc2)ccc1-n1cc(C(F)(F)F)cn1` [Example 108, 2-(4-Chlorophenyl)-N-{3-sulfamoyl-4-[4-(trifluoromethyl)-1H-pyrazol-1-yl]phenyl}-acetamide], the Emax was determined as 35% and the IC50 is greater than 25000 nM.

Consider `NS(=O)(=O)c1cc(NC(=O)C(F)(F)c2ccccc2Cl)ccc1-n1cc(Cl)cn1` [Example 109, 2-(2-Chlorophenyl)-N-[4-(4-chloro-1H-pyrazol-1-yl)-3-sulfamoylphenyl]-2,2-difluoroacetamide], for which the Emax stood at 86% and the IC50 was 655 nM.

In the case of `NS(=O)(=O)c1cc(NC(=O)Cc2ccccc2[N+](=O)[O-])ccc1-n1cc(C(F)(F)F)cn1` [Example 110, 2-(2-Nitrophenyl)-N-{3-sulfamoyl-4-[4-(trifluoromethyl)-1H-pyrazol-1-yl]phenyl}-acetamide], the Emax was found to be 51% and the IC50 was found to be 267 nM.

Regarding `NS(=O)(=O)c1cc(NC(=O)Cc2ccc(Cl)cc2Cl)ccc1-n1cc(C(F)(F)F)cn1` [Example 111, 2-(2,4-Dichlorophenyl)-N-{3-sulfamoyl-4-[4-(trifluoromethyl)-1H-pyrazol-1-yl]phenyl}-acetamide], the Emax came out at 58% and the IC50 turned out to be 373 nM.

For `COc1ccccc1CC(=O)Nc1ccc(-n2cc(C(F)(F)F)cn2)c(S(N)(=O)=O)c1` [Example 112, 2-(2-Methoxyphenyl)-N-{3-sulfamoyl-4-[4-(trifluoromethyl)-1H-pyrazol-1-yl]phenyl}-acetamide], the Emax was found to be 62% and the half-maximal inhibitory concentration (IC50) stood at 263 nM.

As for `NS(=O)(=O)c1cc(NC(=O)Cc2c(F)cccc2Cl)ccc1-n1cc(C(F)(F)F)cn1` [Example 113, 2-(2-Chloro-6-fluorophenyl)-N-{3-sulfamoyl-4-[4-(trifluoromethyl)-1H-pyrazol-1-yl]phenyl}acetamide], the Emax was 86% and the IC50 is 133 nM.

For the compound `NS(=O)(=O)c1cc(NC(=O)Cc2cccc(F)c2)ccc1-n1cc(C(F)(F)F)cn1` [Example 114, 2-(3-Fluorophenyl)-N-{3-sulfamoyl-4-[4-(trifluoromethyl)-1H-pyrazol-1-yl]phenyl}-acetamide], the Emax turned out to be 69% and the IC50 amounted to 367 nM.
